# Results published in the supplement of paper PMC10307832.
# Compound: CC1=C(C(=O)N2C=CSC2=N1)CCN3CCC(=C(C4=CC=CC=C4)C5=CC=C(C=C5)F)CC3
# Experiment: relative viability (nuclei count vs DMSO), 5 days (fraction); higher = more cells survive
# Method in brief: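 Hoechst staining, done together with fixation and permeabilisation, marked nuclei for 4× imaging and MetaXpress counting. This followed 5 days without medium change after lung cancer cell lines, kept overnight at 37 °C in 1536-well plates, were pinned with five library-drug doses (not always all listed) spaced by √10 on vehicle-anchored plates. Viability is the ratio of treated-well to vehicle-well nuclei, expressed as a median across plates. Plates passed only at control CV below 25% with at least one doubling.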
Cell Line,relative viability (0.08 µM),relative viability (0.253 µM),relative viability (0.8 µM),relative viability (2.53 µM),relative viability (8 µM)
COR-L23,0.883,1.16,1.22,1.19,0.519
LK-2,0.955,0.902,1.07,0.998,0.658
CAL-12T,1.02,1.08,0.953,1.02,0.723
NCI-H1437,0.918,1.02,1.02,1.09,0.775
NCI-H23,1.06,1.06,0.857,0.964,0.718
NCI-H727,0.712,1.03,0.896,1.06,0.687
NCI-H1915,1.07,1,1.01,1.01,0.732
NCI-H1648,0.797,0.802,0.802,0.706,0.883
NCI-H3122,0.951,1.04,1.01,1.12,0.715
HCC-827,1.02,1.1,1.04,1.05,0.943
EMC-BAC-2,1.01,0.798,0.908,1.12,0.796
NCI-H522,1.15,1.02,0.834,0.863,0.774
NCI-H2009,1.06,1.07,0.999,1.05,0.871
SK-LU-1,0.845,0.955,1.18,1.15,0.648
LU99A,1.13,0.99,0.88,0.972,0.89
NCI-H1793,0.761,0.891,0.912,0.831,0.711
LC-2-ad,1.09,0.994,0.94,1.04,0.865
IA-LM,0.761,0.928,1.1,0.944,0.497
NCI-H2405,0.967,0.975,0.99,1.11,0.82
HCC-366,0.852,1.02,1.06,1.05,0.502
NCI-H2342,0.761,1.03,0.949,1.02,0.792
A-427,0.983,1.08,0.945,1.04,0.939
HCC-15,0.955,1.14,1.03,0.991,0.725
HOP-62,1.01,1.02,0.988,0.946,0.577
NCI-H1993,0.972,0.816,0.862,1.03,0.866
NCI-H460,0.923,0.956,1.06,1.04,0.567

Cell Line,relative viability (0.08 µM),relative viability (0.253 µM),relative viability (0.8 µM),relative viability (2.53 µM),relative viability (8 µM)
ABC-1,1.04,0.858,0.871,0.888,0.592
Calu-6,0.906,1.02,1.04,1.03,0.602
UMC-11,0.914,0.952,0.936,1.17,0.713
NCI-H2126,0.966,0.991,1.05,1.04,0.914
NCI-H1703,1.03,0.821,0.865,1.13,0.624
NCI-H650,0.853,0.963,0.904,1.1,0.816
201T,1.04,1.04,0.986,1.04,1.01
NCI-H358,0.802,0.921,0.978,1.2,0.639
EBC-1,0.845,0.881,1.09,1.02,0.671
NCI-H1755,0.926,0.998,1.04,1.02,0.777
NCI-H1355,0.961,1,1.04,0.981,0.757
LCLC-103H,1.04,1.06,0.957,1.04,0.796
LOU-NH91,1.01,0.927,0.973,1.04,0.911
NCI-H2085,1,1.07,1.04,0.973,0.82
NCI-H661,0.851,1,1.01,1.02,0.764
NCI-H1792,0.759,0.825,0.942,0.856,0.403
EKVX,0.818,0.984,1.06,1.09,0.711
NCI-H1651,0.823,0.968,0.976,1.01,0.72
EPLC-272H,0.832,0.914,0.864,1.03,0.743
RERF-LC-KJ,0.932,1.01,0.964,0.989,0.662
NCI-H2347,0.964,1.07,1.04,1.05,0.775
NCI-H838,0.779,0.998,0.987,1.22,0.704
SW 1573,0.892,1.12,1.08,1.04,0.61
SK-MES-1,1.02,1.01,1.03,1.09,0.692
NCI-H2023,0.997,0.884,0.991,1.11,0.695
ChaGo-K-1,0.86,1.1,1.06,1.09,0.623

Cell Line,relative viability (0.08 µM),relative viability (0.253 µM),relative viability (0.8 µM),relative viability (2.53 µM),relative viability (8 µM)
NCI-H1666,0.936,0.941,0.978,1.06,0.815
NCI-H441,0.736,1.06,1.15,1.05,0.593
A549,0.841,1.05,1.01,1.06,0.433
NCI-H596,1.02,0.964,0.981,0.952,0.852
NCI-H1299,1.08,1,1,1.01,0.714
H3255,0.802,1.01,1.04,1.01,0.832
NCI-H2087,0.878,1.22,1.13,0.933,0.62
BEN,0.886,1,1,1.07,0.856
NCI-H1975,0.893,0.961,1,0.992,0.662
NCI-H520,0.981,0.974,1.03,1.05,0.657
PC-3 [JPC-3],0.987,0.939,1.04,1.08,0.839
COR-L 105,0.89,0.928,0.787,0.852,0.845
HARA,1.07,1.5,1.06,0.961,0.745
LXF-289,0.952,1.1,1.03,1.03,0.893
NCI-H647,0.996,0.894,0.877,1.09,0.462
HCC-78,0.833,1.08,0.943,0.954,0.806
LCLC-97TM1,0.921,1.07,1.02,0.874,0.91
NCI-H1944,0.969,0.94,0.96,0.958,0.751
HCC-44,1.07,1.04,0.997,1.15,0.888
NCI-H1734,0.975,1.08,0.976,0.955,0.62
NCI-H322M,0.89,0.91,0.877,1.09,1.08
NCI-H1650,0.794,0.982,0.875,0.997,0.642
PC-14,0.939,1.02,1.06,1.1,0.624
NCI-H1395,0.953,0.992,0.762,0.992,0.872
NCI-H2170,0.768,0.9,1.02,1,0.697
NCI-H2228,1.02,0.978,1.15,1.1,0.597
